Test results: ChEMBL document CHEMBL1131395, “Novel antineoplastic agents with efficacy against multidrug resistant tumor cells” (1998)

Experiments:
Assay type in all cases: functional
[1] = test system: MCF7; assay: Compound was tested in vitro for growth inhibition of MCF-7 cells derived from human breast tumor.
[2] = test system: COLO 205; assay: Compound was tested in vitro for growth inhibition of COLO 205 cells derived from human colon tumor
[3] = test system: NCI/ADR-RES; assay: Compound was tested in vitro for growth inhibition of MCF-7/ADR cells that exhibit MDR phenotype.; details: Homo sapiens
[4] = test system: P388/ADR; assay: Compound was tested in vitro for growth inhibition of murine leukemic P388/ADR cells that exhibit MDR phenotype.; details: Mus musculus
[5] = test system: NCI-H522; assay: Compound was tested in vitro for growth inhibition of […] cells derived from human lung tumor
[6] = test system: P388; assay: Compound was tested in vitro for growth inhibition of murine leukemic P388 cells; details: Mus musculus
[7] = test system: SK-MEL-5; assay: Compound was tested in vitro for growth inhibition of SK-MEL-5 cells derived from human melanoma.
[8] = test system: CAKI-1; assay: Compound was tested in vitro for growth inhibition of CAKI-1 cells derived from human renal tumor
[9] = test system: PC-3; assay: Compound was tested in vitro for growth inhibition of PC 3 cells derived from human prostate tumor
[10] = test system: OVCAR-8; assay: Compound was tested in vitro for growth inhibition of OVCAR-8 cells derived from human ovarian tumor
[11] = test system: CCRF-CEM; assay: Compound was tested in vitro for growth inhibition of CCRF-CEM cells derived from human leukemia.
[12] = test system: MDA-N; assay: Compound was tested in vitro for growth inhibition of MDA-N cells derived from human breast tumor
[13] = test system: SF-295; assay: Compound was tested in vitro for growth inhibition of SF 295 cells derived from CNS tumor; details: Homo sapiens

Row | GI50 [1] [nM] | GI50 [2] [nM] | GI50 [4] [nM] | GI50 [6] [nM] | GI50 [7] [nM] | GI50 [9] [nM] | GI50 [10] [nM] | GI50 [11] [nM] | SMILES | GI50 [3] [nM] | GI50 [5] [nM] | GI50 [8] [nM] | GI50 [12] [nM] | GI50 [13] [nM]
1 | 120 | 220 | 110 | 37 | 151 | 468 | 437 | 68 | Cc1ccc(NS(=O)(=O)c2c(F)c(F)c(F)c(F)c2F)cc1C | 320 | 49 | 479 | 123 | 479
2 | – | 1300 | – | – | 1000 | 3200 | 5000 | 600 | COc1ccc(NS(=O)(=O)c2ccc(F)c(F)c2F)cc1 | – | 371 | 5500 | 1400 | 2700
3 | 29 | < 10 | 34 | 12 | < 10 | < 10 | 50 | < 10 | COc1ccc(NS(=O)(=O)c2c(F)c(F)c(F)c(F)c2F)cc1 | 58 | < 10 | 56 | 41 | 11
4 | 34 | 220 | 36 | 27 | 183 | 525 | 372 | 320 | CN(C)c1ccc(NS(=O)(=O)c2c(F)c(F)c(F)c(F)c2F)cc1 | 96 | 58 | 417 | 30 | 501
5 | 28 | 14 | 32 | 12 | 13 | 35 | 50 | < 10 | O=S(=O)(Nc1ccc2[nH]ccc2c1)c1c(F)c(F)c(F)c(F)c1F | 115 | < 10 | 72 | 21 | 40
6 | 430 | 19 | 340 | 140 | 20 | 62 | 91 | 51 | O=S(=O)(Nc1ccc2c(c1)OCCO2)c1c(F)c(F)c(F)c(F)c1F | 410 | 26 | 63 | 40 | 54
7 | 1.1 | – | > 15000 | 16 | – | – | – | – | CC(=O)O[C@H]1C(=O)[C@@]2(C)[C@H]([C@H](OC(=O)c3ccccc3)[C@]3(O)C[C@H](OC(=O)[C@H](O)[C@@H](NC(=O)c4ccccc4)c4ccccc4)C(C)=C1C3(C)C)[C@]1(OC(C)=O)CO[C@@H]1C[C@@H]2O [PACLITAXEL] | > 15000 | – | – | – | –
8 | 2.3 | – | 470 | 4.1 | – | – | – | – | CC[C@]1(O)C[C@@H]2CN(CCc3c([nH]c4ccccc34)[C@@](C(=O)OC)(c3cc4c(cc3OC)N(C)[C@H]3[C@@](O)(C(=O)OC)[C@H](OC(C)=O)[C@]5(CC)C=CCN6CC[C@]43[C@@H]65)C2)C1 [VINBLASTINE] | 350 | – | – | – | –
